pIC50: −log10 of the molar value. Bridge positions count the residues as written; N and C are the ends. Square brackets hold non-standard residues; d marks the D form. Peptide text beside a SMILES is read from it. * marks the point of attachment. R8 = C=CCCCCCC[C@@](C)(N)C(=O)O; S5 = C=CCCC[C@](C)(N)C(=O)O; X1 = COCCOCCOCCOC(=O)*
Key:
HDM2 = HDM2 (Homo sapiens, UniProt Q00987); test: FP Competition Blinding Assay | HDM2 IC50 (nM)
HDMx = HDMx (Homo sapiens, UniProt O15151); test: FP Competition Blinding Assay | HDMx IC50 (nM)
HDMx, sequence (O15151 whole entry, looked up): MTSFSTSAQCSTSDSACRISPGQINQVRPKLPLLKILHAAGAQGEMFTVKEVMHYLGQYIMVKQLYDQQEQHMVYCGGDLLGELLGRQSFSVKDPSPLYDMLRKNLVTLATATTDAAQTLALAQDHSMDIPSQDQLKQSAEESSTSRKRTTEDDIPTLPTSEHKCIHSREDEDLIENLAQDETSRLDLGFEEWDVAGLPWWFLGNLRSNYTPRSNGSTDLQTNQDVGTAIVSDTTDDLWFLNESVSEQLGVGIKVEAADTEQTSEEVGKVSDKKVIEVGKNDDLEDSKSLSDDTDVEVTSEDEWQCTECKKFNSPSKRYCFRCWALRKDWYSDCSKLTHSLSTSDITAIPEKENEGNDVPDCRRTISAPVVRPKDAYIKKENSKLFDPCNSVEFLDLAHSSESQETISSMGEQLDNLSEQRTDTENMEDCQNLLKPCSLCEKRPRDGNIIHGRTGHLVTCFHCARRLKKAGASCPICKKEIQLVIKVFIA

HDM2, sequence (Q00987 whole entry, looked up): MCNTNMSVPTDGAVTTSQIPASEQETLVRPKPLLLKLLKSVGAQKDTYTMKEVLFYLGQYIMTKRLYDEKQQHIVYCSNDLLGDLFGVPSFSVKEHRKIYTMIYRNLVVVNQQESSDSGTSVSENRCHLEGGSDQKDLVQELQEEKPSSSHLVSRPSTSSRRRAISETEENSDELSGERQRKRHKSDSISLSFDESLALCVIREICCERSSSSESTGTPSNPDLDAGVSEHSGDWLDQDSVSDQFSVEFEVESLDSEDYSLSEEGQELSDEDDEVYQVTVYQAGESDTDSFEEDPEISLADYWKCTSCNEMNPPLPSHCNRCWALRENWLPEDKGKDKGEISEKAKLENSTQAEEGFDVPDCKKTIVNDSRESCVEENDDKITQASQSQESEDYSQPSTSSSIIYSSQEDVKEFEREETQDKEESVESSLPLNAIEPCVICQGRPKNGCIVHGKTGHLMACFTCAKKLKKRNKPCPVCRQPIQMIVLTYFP

| Compound | pIC50 (HDM2) | pIC50 (HDMx) |
| --- | --- | --- |
| COCCOCCOCCOC(=O)N[C@@H](CC(C)C)C(=O)N[C@H](C(=O)N[C@@H](Cc1ccccc1)C(=O)N[C@]1(C)CCCCCCC=CCCC[C@@](C)(C(=O)N[C@@H](CO)C(N)=O)NC(=O)[C@H](CC(C)C)NC(=O)[C@H](CCC(N)=O)NC(=O)[C@H](C)NC(=O)[C@H](Cc2c[nH]c3ccccc23)NC(=O)[C@H](Cc2ccc(O)cc2)NC(=O)[C@H](C)NC1=O)[C@@H](C)O [SP-580, mdPEG3-L T F $r8 A Y W A Q L $ S -NH2] (X1-LTF[R8]AYWAQL[S5]S-NH2; staple 4-11) | 7.09 | 6.71 |
| CC(=O)N[C@@H](CC(C)C)C(=O)N[C@H](C(=O)N[C@@H](Cc1ccccc1)C(=O)N[C@]1(C)CCCCCCC=CCCC[C@@](C)(C(=O)N[C@@H](CO)C(N)=O)NC(=O)[C@H](CC(C)C)NC(=O)[C@H](CCC(N)=O)NC(=O)[C@H](C)NC(=O)[C@H](Cc2c[nH]c3ccccc23)NC(=O)[C@H](Cc2ccc(O)cc2)NC(=O)[C@H](C)NC1=O)[C@@H](C)O [SP-191, Ac- L T F $r8 A Y W A Q L $ S -NH2] (Ac-LTF[R8]AYWAQL[S5]S-NH2; staple 4-11) | 7.13 | 7.01 |

— patent US9957299B2, “Peptidomimetic macrocycles” (AILERON THERAPEUTICS, INC., priority 2010, dated 2018)
